Data reported in PMC7730205, “Different Sensitivity of Control and MICU1- and MICU2-Ablated Trypanosoma cruzi Mitochondrial Calcium Uniporter Complex to Ruthenium-Based Inhibitors” (International Journal of Molecular Sciences, 2020).

Experiments:
Format in all cases: cell-based, Trypanosoma cruzi
[1] = system: T. cruzi epimastigotes; assay: Cellular respiration of epimastigotes (high-resolution respirometry)
Method: (§1) Figure 4 Effect of Ru265 on Trypanosoma cruzi. (a) Effect of Ru265 on epimastigote growth. Growth of control epimastigotes in LIT medium in the presence of 1 μM, 5 μM, and 10 μM Ru265. (b) Effect of Ru265 on trypomastigote attachment. Trypomastigotes were pretreated for 30 min with 1 μM antimycin A (AA) or 10 μM Ru265 and added to glutaraldehyde-fixed Vero cells. After 1 h of incubation at 37 °C, the cells were washed, and the number of attached trypomastigotes was counted. […] (c) Effect of Ru265 on trypomastigotes infection. Trypomastigotes were pretreated for 30 min with 1 μM antimycin A or 10 μM Ru265 and added to Vero cells. After 4 h of incubation at 37 °C, the cells were washed, and the number of intracellular parasites was counted. […] (f) Routine respiration (initial oxygen flux values), leak respiration after the addition of 0.5 µg/mL of oligomycin A, and electron transfer system (ETS) capacity after the sequential additions of FCCP (0.2 μM each) were measured for each condition. […] (g) Representative experiment showing mitochondrial Ca^2+ uptake by intact epimastigotes in relative fluorescence units (RFU). […] (h) Changes in fluorescence (before and after ionomycin addition) from three experiments like that shown in panel (g). […]

[2] = system: T. cruzi epimastigotes (intact, non-permeabilized); assay: Mitochondrial Ca2+ uptake in intact epimastigotes using Rhod-2 AM
Method: as §1

[3] = system: T. cruzi epimastigotes; assay: Epimastigote growth in LIT medium; settings: 1 µM, 5 µM and 10 µM
Method: We analyzed the growth rate of epimastigotes in LIT medium at different Ru265 concentrations (1 µM, 5 µM, and 10 µM). […] The presence of metabolic inhibitors affects attachment and invasion of T. cruzi trypomastigotes to mammalian cells since these are an active process which depends on the expenditure of parasite energy. Preincubation of trypomastigotes for 30 min with antimycin A, which blocks electron transport from cytochrome b to c1, decreased the ability of trypomastigotes to attach to glutaraldehyde-fixed cells (Figure 4b) and invade intact host cells (Figure 4c).
Figure 4 Effect of Ru265 on Trypanosoma cruzi. (a) Effect of Ru265 on epimastigote growth. […] After 1 h of incubation at 37 °C, the cells were washed, and the number of attached trypomastigotes was counted. […] After 4 h of incubation at 37 °C, the cells were washed, and the number of intracellular parasites was counted. […] (f) Routine respiration (initial oxygen flux values), leak respiration after the addition of 0.5 µg/mL of oligomycin A, and electron transfer system (ETS) capacity after the sequential additions of FCCP (0.2 μM each) were measured for each condition. […] (g) Representative experiment showing mitochondrial Ca^2+ uptake by intact epimastigotes in relative fluorescence units (RFU). […] (h) Changes in fluorescence (before and after ionomycin addition) from three experiments like that shown in panel (g). […]

## N.N.N.N.N.N.N.N.[Cl][Ru+3].[N-]=[Ru][Cl] [Ru265]
[1]; 10 µM Ru265, n = 3
  Uncoupled respiratory control rate (state 3u / rate with oligomycin): 1.70 ± 0.04
[1]; control epimastigotes, 10 µM Ru265, compared with parasites without inhibitor
  Effect on O2 consumption level: did not affect O2 consumption level
[2]; 50 µM Ru265 for 30 min, nigericin + ionomycin, three experiments
  Amount of Ca2+ taken up by mitochondria of intact cells (Rhod-2 fluorescence): no significant difference
[2]; intact epimastigotes
  Permeability in trypanosomes (inferred from lack of effect on intact cells): low permeability
[3]
  Toxicity to epimastigotes: nontoxic at the concentrations tested
[3]; control epimastigotes
  Effect on growth rate of epimastigotes: does not affect the growth rate
